Experimental data reported in patent US20240382434A1, “CARYOPHYLLENE-CONTAINING COMPOSITION” (SUNSHO PHARMACEUTICAL CO., LTD., priority 2021, published 2024).

Assays:
Type in all cases: physicochemical
Settings in all cases: conclusion in words
[1] = Experiment 1: Volatilization of menthol
Experimental: The prepared compositions were placed in petri dishes and used as test samples.
Each test sample was allowed to volatilize without being covered under room temperature conditions for a certain period of time. The mass of each test sample was measured at a given time point. The volatilization amount and rate were calculated from the measured values.
Similarly, the volatilization amount and rate of a test sample using only caryophyllene were also calculated.
The time constant was calculated from the measurement results [by subtracting the volatilization amount of caryophyllene (theoretical value)].
In the table, the unit of the time constant is hour (h) (the same applies hereinafter).

[2] = Experiment 2: Dissolution of menthol
Experimental: The amounts (parts by mass (pbm)) of the ingredients shown in the table below were placed into 20-mL lidded glass bottles.
The lidded glass bottles were placed into a water bath set at 25° C. After the temperature reached 25° C., the bottles were kept warm for 30 minutes to adjust the temperature.
The temperature was continuously kept at 25° C. With every 20 minutes, the lidded glass bottles were inverted for mixing and checked visually to see if the menthol had dissolved. The time to complete dissolution was recorded as the time required for the menthol to dissolve. Check was made every 20 minutes until 360 minutes had passed, and then 3 days later, visual check was made again. When the menthol had not dissolved after 3 days, the result was recorded as non-dissolved.

[3] = Experiment 3: Freezing resistance
Experimental: The amounts (parts by mass (pbm)) of the ingredients shown in the table below were mixed and placed into 20-mL lidded glass bottles to dissolve into solutions. The lidded glass bottles were placed into a water bath set at 25° C. After the temperature reached 25° C., the bottles were kept warm for 30 minutes to adjust the temperature.
Then, the glass bottles were placed in a freezer (at approximately −20° C.). The freezer was opened every 30 minutes to visually check if each solution had solidified. The time point when the solution was partially solidified and the time point when the solution was completely solidified were recorded. Check was made every 30 minutes until 360 minutes had passed, and then 3 days later, visual check was made again. When the menthol had not solidified after 3 days, the result was recorded as non-solidified.

Caryophyllene
Effect on volatilization of menthol [1]: enhances volatilization of menthol
Effect on dissolution of menthol [2]: enhanced dissolution of menthol
Effect on freezing resistance of the MCT [3]: improved freezing resistance of the MCT
